Assays:
PC12 cells = assay: MTT reduction assay: protection of PC12 cells from βA insult; type: cell-based; conditions: 24 hours
Procedure: (§1) The neuronal cell protection by the extract or combination of extracts was determined by observing the differences in the cell viability of βA (both 25-35 and 1-42) treated cells, βA (both 25-35 and 1-42) treated cells further including an extract or a combination of extracts according to the invention, and a DMSO control.
(§2) The degree of βA insult was measured by 3-[4,5-dimethylthiazol-2-yl]-2,5-diphenyltetrazolium bromide (MTT) reduction assay. See Kim et al., Neurosci Lett 303, 57 (2001), Park et al., J Nat Prod 65, 1227 (2002) and Kim et al., Plant Medica 68, 375 (2002). The detection of cell growth or cell death can be determined by observing the conversion of MTT to the colored product, MTT formazan, the concentration of which can be measured colorimetrically at 550 nm. See Kim et al., Neurosci Lett 303, 57 (2001).
(§3) The extract or combination of extracts' ability to protect PC12 cells from βA insult was investigated according to the published procedure. See Kim et al., Neurosci Lett 303, 57 (2001), Park et al., J Nat Prod 65, 1227 (2002) and Kim et al., Plant Medica 68, 375 (2002). For the bioassay, 90 μL of exponentially growing cells (2,000 cells per mL) were plated in 96-well tissue culture plates. Cells were incubated with βA(1-42) (2.0 μg/mL, prepared from a stock solution (1.0 mg/mL in dimethyl sulfoxide (DMSO))) and test compound at various concentrations (50, 10, 2, 0.4, and 0.08 μg/mL) for 24 hours. The final DMSO concentration was less than 1%. The extract or combination of extracts' ability to protect PC12 cells from βA(1-42) insult was determined by measuring the cell's potential to reduce MTT with respect to the treatment of cells with 1% DMSO only and the treatment of cells with […] βA(1-42) and 1% DMSO without the presence of test extract or a combination of extracts. After the incubation of cells in MTT solution (25 μL per well, 1 mg/mL stock solution) for 1 h at 37° C., 100 μL Lysing buffer (50% aqueous dimethylformamide (DMF) and 20% sodium dodecyl sulfate (SDS) at pH 4.7) was added and incubated overnight at 37° C. Optical density of the resulting solutions was colorimetrically determined at 550 nm using a microplate reader. Dose-response curves were prepared and the results were expressed as ED50 values in μg/mL (Table 1). Curcumin and (±)-α-tocopherol (vitamin-E) were used as reference compounds. Bioassay using βA(25-35) was similarly performed. The extract or combination of extracts' ability to protect IMR32 and HUVEC cells from βA insult was also similarly investigated.
(§4) PC12 cells were obtained from the American Type Culture Collection (Rockville, Md.). Cells were routinely cultured on a polystyrene-coated Corning tissue culture plate (Corning, New York, N.Y.). Culture media and supplements were obtained from Life Technologies (Grand Island, N.Y.). Cells were maintained in high glucose Dulbecco's modified Eagle medium, 10% horse serum, 5% fetal calf serum, and 1% penicillin/streptomycin. See Kim et al., Neurosci Lett 303, 57 (2001), Park et al., J Nat Prod 65, 1227 (2002) and Kim et al., Plant Medica 68, 375 (2002). IMR32 human neuroblastoma cells were obtained from the American Type Culture Collection (ATCC). Normal umbilical human vein endothelial (HUVEC) cells were obtained from Clonetics (San Diego, Calif.). Cells were routinely cultured on a polystyrene-coated Corning tissue culture plate (Corning, New York, N.Y.). IMR32 cells were grown in high glucose Dulbecco's Modified Eagle Medium (DMEM), 10% horse serum, 5% fetal calf serum, and 1% penicillin/streptomycin. HUVEC cells were grown in EGM-2 Bullet Kit (Clonetics, San Diego, Calif.). For the bioassay using βA(25-35), 100 μl of exponentially growing IMR32 and HUVEC cells (2,000 and 500 cells per ml, respectively) were plated in 96-well tissue culture plates. A different number of cells per ml was used for the experiment because of the cell size difference of HUVEC cells with respect to IMR32 cells and PC12 cells. […]

[1] = test system: IMR32 human neuroblastoma cells; assay: MTT reduction assay: protection of IMR32 cells from βA insult; type: cell-based
Procedure: as §1, §2, §3, §4

HUVEC cells = assay: MTT reduction assay: protection of HUVEC cells from βA insult; type: cell-based, human
Procedure: as §1, §2, §3, §4

[2] = test system: PC12, IMR32, and HUVEC cells; assay: Cell protection from βA peptide insult, stated in words; type: cell-based
Procedure: as §1
as §2, with “See Kim et al., Neurosci Lett 303, 57 (2001).” left out
The extract or combination of extracts' ability to protect PC12 cells from βA insult was investigated according to the published procedure. […] The extract or combination of extracts' ability to protect PC12 cells from βA(1-42) insult was determined by measuring the cell's potential to reduce MTT with respect to the treatment of cells with 1% DMSO only and the treatment of cells with 1.0 μg/mL βA(1-42) and 1% DMSO without the presence of test extract or a combination of extracts. […] Optical density of the resulting solutions was colorimetrically determined at 550 nm using a microplate reader. […]

Row | Molecule | ED50, cell protection against βA insult (PC12 cells; βA(1-42)) [µg/mL] | ED50, cell protection against βA insult (PC12 cells; βA(25-35)) [µg/mL] | ED50, cell protection against βA insult ([1]; βA(1-42)) [µg/mL] | ED50, cell protection against βA insult ([1]; βA(25-35)) [µg/mL] | ED50, cell protection against βA insult (HUVEC cells; βA(1-42)) [µg/mL] | ED50, cell protection against βA insult (HUVEC cells; βA(25-35)) [µg/mL] | protection of cells from βA peptide insult (in words) [2]
1 | CCCCC/C=C/C(=O)CCc1ccc(O)c(OC)c1 [6-shogaol [6S], 6-shogaol] | 5.7 | 5.4 | 6.1 | 6.3 | 5.5 | 5.9 | –
2 | CCCCCCCCCCC(=O)CCc1ccc(O)c(OC)c1 [(45), [9]-dihydroshogaol] | – | – | – | – | – | – | effectively protected cells from βA peptide insult
3 | CCCCCCCCC=CC(=O)CCc1ccc(O)cc1 [(50), [9]-demothoxyshogaol] | – | – | – | – | – | – | effectively protected cells from βA peptide insult
4 | CC(C)c1cc2c(c(O)c1O)[C@@]13CCCC(C)(C)[C@@H]1[C@@H](O)C2OC3=O [RS-7] | 3.1 | 2.3 | 3.4 | 2.9 | 3.5 | 3.2 | –
5 | CC(C)c1cc(C=O)c2c(c1O)OC(=O)[C@@]21CCCC(C)(C)[C@@H]1C=O [RS-8] | 13.3 | 11.6 | 14.6 | 15.2 | 16.7 | 15.5 | –
6 | CC(C)c1cc2c(c(O)c1O)[C@@]13CCCC(C)(C)[C@@H]1[C@H](OC3=O)[C@H]2O [RS-9] | 35.4 | 33.2 | 35.5 | 38.3 | 34.2 | 31.0 | –
7 | COc1cc(C=CC(=O)CC(=O)C=Cc2ccc(O)c(OC)c2)ccc1O [curcumin, 1,7-bis(4-hydroxy-3-methoxyphenyl)-1,6-heptadiene-3,5-dione, reference compound] | 7.1 | 6.7 | 6.3 | 7.4 | 6.8 | 6.2 | –
8 | (±)-α-tocopherol [reference compound] | >50 | >50 | >50 | >50 | >50 | >50 | –

From patent publication US20070003641A1, “Synergistic pharmaceutical compositions useful in prevention and treatment of beta-amyloid protein-induced disease” (priority 2005, published 2007)
